Values joined by “and” are separate entries in the source; they are usually repeats but may differ in a detail not shown here. Equal entries are not always repeated. Where two headings read alike, the source gives them in different places.
What was measured:
EV71 [1] = assay: Neutralization test: inhibition of EV71-induced CPE on Vero cells; type: cell-based, Enterovirus 71 (Shenzhen 98, shzh01-8); settings: for IC50: CPE on Vero cells, 100 TCID50, Reed-Muench; for EV71 SI: selectivity index
Procedure: (§1) The anti-EV71 activity, anti-CVA16 activity, and cytotoxicity of the compounds on the EV71 test strain (Shenzhen 98, shzh01-8) and CVA16 (laboratory viral culture) were evaluated by using cell culture cytopathic effect assays.
(§2) This assay measured the ability of the test compounds to inhibit the CPE induced by EV71 and CVA16 on Vero cells. The 96-well tissue culture plates were seeded with 20,000 Vero cells/mL. The plates were incubated for 24 h at 37 °C. The virus (100 TCID50) mixed with different concentrations of the test compounds was added to the cells, which were incubated at 37 °C for 2 h. After adsorption, the infected cells were overlaid with 50 μL of Dulbecco’s modified Eagle’s medium with 5% fetal bovine serum, and 2% DMSO. […] All assays were performed in triplicate.

CVA16 = assay: Neutralization test: inhibition of CVA16-induced CPE on Vero cells; type: cell-based, Coxsackievirus A16 (laboratory viral culture); settings: for IC50: CPE on Vero cells, 100 TCID50, Reed-Muench; for CVA16 SI: selectivity index
Procedure: as §1, §2

Vero cells = assay: Cytotoxicity assay on Vero cells; type: cell-based; settings: for TC50: 96 h, concentration reducing cell viability to 50%
Procedure: The Vero cells treated with the test compounds were incubated at 37 °C for 96 h. After incubation, the cells were harvested and counted.

EV71 [2] = system: EV71; design: method as in PMID 23519203; settings: pirodavir; cited from earlier work
[3] = design: method as in PMID 23519203; settings: pirodavir; cited from earlier work

Row | SMILES | IC50 (EV71 [1]; Enterovirus A, EV71, Vero) | EV71 SI (EV71 [1]) | IC50 (CVA16) | IC50 (CVA16; Enterovirus A, CVA16, Vero) | TC0 (Vero cells) | TC50 (Vero cells) | CVA16 SI (CVA16) | melting point | IC50 (EV71 [1]) | IC50 (EV71 [2]) | SI (EV71 [2]) | TC50 [3]
1 | Clc1cc(N2CCN(CCOc3ccc(-n4cnnc4)cc3)CC2)c(Cl)nn1 [Compound 9b] | 21.6 ± 1.4 µM | 8.7 | > 29.7 µM | > 29.7 µM | 29.74 µM and 29.7 ± 2.2 µM | 189 ± 17.3 µM | – | – | – | – | – | –
2 | CCOC(=O)c1ccc(OCCC2CCN(c3ccnnc3Cl)CC2)nc1 [Compound 9f] | 25.4 ± 1.7 µM | >20.2 | – | 16 ± 0.9 µM | 128 ± 9.5 µM | >512 µM | >32.0 | – | – | – | – | –
3 | CCOc1ccc(OCCCCCCN2CCN(c3nccs3)CC2)cc1.Cl [Compound 8c, 2-(4-(6-(4-Ethoxyphenoxy)hexyl)piperazin-1-yl)thiazole hydrochloride] | 4.3 ± 0.1 µM | 12.7 | – | 6.8 ± 0.4 µM | 6.8 ± 0.1 µM | 54.1 ± 8.1 µM | 8.0 | 222 to 224 °C | – | – | – | –
4 | COc1ccc(OCCCCCN2CCN(c3nccs3)CC2)cc1 [Compound 8a, 2-(4-(5-(4-Methoxyphenoxy)pentyl)piperazin-1-yl)thiazole] | 100 ± 9 µM | 2.8 | – | 69.2 ± 5.5 µM | 138 ± 9.6 µM | 277 ± 2.2 µM | 4.0 | – | – | – | – | –
5 | CC(C)(C)c1ccc(OCCCCCCN2CCN(c3nccs3)CC2)cc1 [Compound 8f, 2-(4-(6-(4-tert-Butylphenoxy)hexyl)piperazin-1-yl)thiazole] | 3.9 ± 0.1 µM | 4.0 | – | 7.8 ± 0.6 µM | 7.8 ± 0.4 µM | 15.6 ± 0.3 µM | 2.0 | 30 to 32 °C | – | – | – | –
6 | COC(=O)c1ccc(OCCC2CCN(c3cc(Cl)nnc3Cl)CC2)cc1 [Compound 9d] | > 31.5 µM | – | – | 22.1 ± 1.1 µM | 30.5 ± 2.0 µM | 193 ± 19.3 µM | 8.7 | – | – | – | – | –
7 | CCOc1ccc(OCCN2CCN(c3cc(Cl)nnc3Cl)CC2)cc1 [Compound 9c] | > 31.5 µM | – | – | 10.8 ± 0.3 µM | 31.5 ± 2.1 µM | 62.9 ± 2.4 µM | 5.8 | – | – | – | – | –
8 | CCCCc1ccc(OCCN2CCN(c3cc(Cl)nnc3Cl)CC2)cc1 [Compound 9a] | 1.2 µM | 16.1 | – | 1.4 ± 0.1 µM | 7.7 ± 0.3 µM | 19.2 ± 0.7 µM | 13.8 | – | – | – | – | –
9 | CCc1ccc(OCCCCCCN2CCN(c3nccs3)CC2)cc1.Cl [Compound 8d, 2-(4-(6-(4-Ethylphenoxy)hexyl)piperazin-1-yl)thiazole hydrochloride] | 4.4 ± 0.3 µM | 12.7 | – | 14 ± 0.5 µM | 28.0 ± 2.5 µM | 56.0 ± 3.3 µM | 4.0 | 240 to 242 °C | – | – | – | –
10 | CC(C)c1ccc(OCCCCCCN2CCN(c3nccs3)CC2)cc1.Cl [Compound 8e, 2-(4-(6-(4-Isopropylphenoxy)hexyl)piperazin-1-yl)thiazole hydrochloride] | 4.28 µM | 10.1 | 1.2 ± 0.5 µM | 1.24 µM | 6.8 ± 0.8 µM | 43.08 µM and 43.1 ± 4.7 µM | 34.8 | 135 to 137 °C | 4.3 µM | – | – | –
11 | CCOC(=O)c1ccc(OCCC2CCN(c3ccc(C)nn3)CC2)cc1 [pirodavir] | – | – | – | – | – | – | – | – | – | 1.2 ± 0.2 µM | 25 | 31 ± 2.2 µM
12 | CCOc1ccc(OCCCCCN2CCN(c3nccs3)CC2)cc1 [Compound 8b, 2-(4-(5-(4-Ethoxyphenoxy)pentyl)piperazin-1-yl)thiazole] | 21 ± 1.2 µM | 3.2 | – | 5.3 ± 0.3 µM | 33.3 ± 3.9 µM | 66.6 ± 1.0 µM | 12.7 | 79 to 81 °C | – | – | – | –

From publication PMC6269887, “Novel Substituted Heteroaromatic Piperazine and Piperidine Derivatives as Inhibitors of Human Enterovirus 71 and Coxsackievirus A16” (Molecules, 2013)
